Reference: ChEMBL document CHEMBL3526102, “Biotransformation of two β-secretase inhibitors including ring opening and contraction of a pyrimidine ring” (Drug Metab Dispos, 2013)

Tests used:
[1] = Drug excretion in Sprague-Dawley rat urine at 30 umol/kg, iv after 24 hrs by LC-MS analysis; format: ADME, organism-based; conditions: read-out: Drug excretion
[2] = Drug excretion in Sprague-Dawley rat feces at 30 umol/kg, iv after 48 hrs by LC-MS analysis; format: ADME, organism-based; conditions: faeces, read-out: Drug excretion
[3] = Drug excretion in bile duct-cannulated Sprague-Dawley rat bile at 30 umol/kg, iv after 6 hrs by LC-MS analysis; format: ADME, organism-based; conditions: read-out: Drug excretion
Liver microsome [4] = experiment: Drug level in human liver microsomes treated with (S)-1-pyridin-4-yl-4-fluoro-1-(3-(pyrimidin-5-yl)phenyl)-1H-isoindol-3-amine at 1 uM after 30 mins by LC-MS analysis; format: ADME; conditions: 0.5 h
Cytochrome P450 3A4 = Cytochrome P450 3A4 (Homo sapiens, UniProt P08684); experiment: Activity of human recombinant CYP3A4 expressed in insect BTI-TN-5B1-4 cell microsomes assessed as enzyme-mediated drug metabolism treated with (S)-1-pyridin-4-yl-4-fluoro-1-(3-(pyrimidin-5-yl)phenyl)-1H-isoindol-3-amine at 2 uM after 30 mins; format: ADME; conditions: bti-tn-5b1-4, 0.5 h
Cytochrome P450 3A4, sequence (P08684 whole entry): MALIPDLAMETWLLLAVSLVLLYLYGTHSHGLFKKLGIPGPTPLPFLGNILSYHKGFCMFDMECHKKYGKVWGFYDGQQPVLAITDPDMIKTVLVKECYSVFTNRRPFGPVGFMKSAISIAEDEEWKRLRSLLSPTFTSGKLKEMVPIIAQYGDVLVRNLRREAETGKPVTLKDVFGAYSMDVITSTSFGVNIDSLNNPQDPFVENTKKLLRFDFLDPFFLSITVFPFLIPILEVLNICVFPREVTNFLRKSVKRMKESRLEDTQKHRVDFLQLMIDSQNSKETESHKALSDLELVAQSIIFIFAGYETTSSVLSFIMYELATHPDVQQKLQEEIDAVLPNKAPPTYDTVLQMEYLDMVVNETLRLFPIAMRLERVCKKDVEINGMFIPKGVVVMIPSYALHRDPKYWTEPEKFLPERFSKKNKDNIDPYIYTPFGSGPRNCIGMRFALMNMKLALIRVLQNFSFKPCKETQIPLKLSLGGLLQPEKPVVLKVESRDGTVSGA

Plasma = experiment: Drug level in bile duct-cannulated Sprague-Dawley rat plasma treated with (S)-1-pyridin-4-yl-4-fluoro-1-(3-(pyrimidin-5-yl)phenyl)-1H-isoindol-3-amine at 30 umol/kg, iv after 6 hrs by LC-MS analysis; format: ADME, organism-based; conditions: in vivo
Liver microsome [5] = experiment: Drug level in Sprague-Dawley rat liver microsomes treated with (S)-1-pyridin-4-yl-4-fluoro-1-(3-(pyrimidin-5-yl)phenyl)-1H-isoindol-3-amine at 1 uM after 30 mins by LC-MS analysis; format: ADME; conditions: 0.5 h
Hepatocyte [6] = experiment: Drug level in New Zealand White rabbit hepatocytes treated with [14C]-AZD3839 at 5 uM after 120 mins by LC-MS analysis; format: ADME, cell-based, Oryctolagus cuniculus; conditions: 2 h
Hepatocyte [7] = experiment: Drug level in human hepatocytes treated with [14C]-AZD3839 at 5 uM after 120 mins by LC-MS analysis; format: ADME, cell-based; conditions: 2 h
Liver microsome [8] = experiment: Drug level in Sprague-Dawley rat liver microsomes treated with AZD3839 at 1 uM after 30 mins by LC-MS analysis; format: ADME; conditions: 0.5 h
Liver = experiment: Drug level in Sprague-Dawley rat aroclor 1254-induced liver S9 fraction treated with AZD3839 at 100 uM by LC-MS analysis; format: ADME, subcellular; conditions: s9, 100 µM
Hepatocyte [9] = experiment: Drug level in Sprague-Dawley rat hepatocytes treated with [14C]-AZD3839 at 5 uM after 120 mins by LC-MS analysis; format: ADME, cell-based; conditions: 2 h
Liver microsome [10] = experiment: Drug level in human liver microsomes treated with AZD3839 at 1 uM after 30 mins by LC-MS analysis; format: ADME; conditions: 0.5 h
[11] = Drug level in Sprague-Dawley rat bile treated with [14C]-AZD3839 at 58 umol/kg, po after 48 hrs by LC-MS analysis; format: ADME, organism-based; conditions: in vivo
Liver microsome [12] = experiment: Drug metabolism in Sprague-Dawley rat liver microsomes assessed as (S)-5-(3-(3-amino-1-(2-(difluoromethyl)pyridin-4-yl)-4-fluoro-1H-isoindol-1-yl)phenyl)pyrimidine 1-oxide formation at 1 uM after 30 mins by LC-MS analysis; format: ADME; conditions: 0.5 h
[13] = Drug metabolism in Sprague-Dawley rat aroclor 1254-induced liver S9 fraction assessed as (S)-5-(3-(3-amino-1-(2-(difluoromethyl)pyridin-4-yl)-4-fluoro-1H-isoindol-1-yl)phenyl)pyrimidine 1-oxide formation at 100 uM by LC-MS analysis; format: ADME, subcellular; conditions: s9, 100 µM
Liver microsome [14] = experiment: Drug metabolism in human liver microsomes assessed as (S)-5-(3-(3-amino-1-(2-(difluoromethyl)pyridin-4-yl)-4-fluoro-1H-isoindol-1-yl)phenyl)pyrimidine 1-oxide formation at 1 uM after 30 mins by LC-MS analysis; format: ADME; conditions: 0.5 h
[15] = Drug metabolism in Sprague-Dawley rat aroclor 1254-induced liver S9 fraction assessed as (S)-4-(3-amino-4-fluoro-1-(3-(pyrimidin-5-yl)phenyl)-1H-isoindol-1-yl)-2-(difluoromethyl)pyridine 1-oxide formation at 100 uM by LC-MS analysis; format: ADME, subcellular; conditions: s9, 100 µM
Liver microsome [16] = experiment: Drug metabolism in Sprague-Dawley rat liver microsomes assessed as (S)-4-(3-amino-4-fluoro-1-(3-(pyrimidin-5-yl)phenyl)-1H-isoindol-1-yl)-2-(difluoromethyl)pyridine 1-oxide formation at 1 uM after 30 mins by LC-MS analysis; format: ADME; conditions: 0.5 h
[17] = Drug metabolism in Sprague-Dawley rat aroclor 1254-induced liver S9 fraction assessed as 5-(3-(3-amino-1-(2-(difluoromethyl)pyridin-4-yl)-4-fluoro-1H-isoindol-1-yl)phenyl)pyrimidin-4(3H)-one formation at 100 uM by LC-MS analysis; format: ADME, subcellular; conditions: s9, 100 µM
Liver microsome [18] = experiment: Drug metabolism in human liver microsomes assessed as (S)-4-(3-amino-4-fluoro-1-(3-(pyrimidin-5-yl)phenyl)-1H-isoindol-1-yl)-2-(difluoromethyl)pyridine 1-oxide formation at 1 uM after 30 mins by LC-MS analysis; format: ADME; conditions: 0.5 h
[19] = Drug metabolism in human hepatocytes assessed as 5-(3-(3-amino-1-(2-(difluoromethyl)-1-oxidopyridin-4-yl)-4-fluoro-1H-isoindol-1-yl)phenyl)pyrimidine 1-oxide formation at 5 uM after 120 mins by LC-MS analysis; format: ADME, cell-based, Hepatocyte; conditions: 2 h
[20] = Drug metabolism in Sprague-Dawley rat hepatocytes assessed as (2S,3S,4S,5R,6S)-6-(5-(3-(3-amino-1-(2-(difluoromethyl)pyridin-4-yl)-4-fluoro-1H-isoindol-1-yl)phenyl)-1H-imidazol-1-yloxy)-3,4,5-trihydroxytetrahydro-2H-pyran-2-carboxylic acid formation at 5 uM after 120 mins by LC-MS analysis; format: ADME, cell-based, Hepatocyte
[21] = Drug metabolism in Sprague-Dawley rat bile assessed as 5-(3-(3-amino-1-(2-(difluoromethyl)pyridin-4-yl)-4-fluoro-1H-isoindol-1-yl)phenyl)-1H-imidazol-1-ol formation at 58 umol/kg, po after 48 hrs by LC-MS analysis; format: ADME, organism-based; conditions: in vivo
[22] = Drug metabolism in Sprague-Dawley rat hepatocytes assessed as 5-(3-(3-amino-1-(2-(difluoromethyl)pyridin-4-yl)-4-fluoro-1H-isoindol-1-yl)phenyl)pyrimidin-4-ol formation at 5 uM after 120 mins by LC-MS analysis; format: ADME, cell-based, Hepatocyte; conditions: 2 h
[23] = Drug metabolism in Sprague-Dawley rat bile assessed as (2S,3S,4S,5R,6S)-6-(5-(3-(3-amino-1-(2-(difluoromethyl)pyridin-4-yl)-4-fluoro-1H-isoindol-1-yl)phenyl)-1H-imidazol-1-yloxy)-3,4,5-trihydroxytetrahydro-2H-pyran-2-carboxylic acid formation at 58 umol/kg, po after 48 hrs by LC-MS analysis; format: ADME, organism-based; conditions: in vivo
[24] = Drug metabolism in Sprague-Dawley rat hepatocytes assessed as (S)-4-(3-amino-4-fluoro-1-(3-(pyrimidin-5-yl)phenyl)-1H-isoindol-1-yl)-2-(difluoromethyl)pyridine 1-oxide formation at 5 uM after 120 mins by LC-MS analysis; format: ADME, cell-based, Hepatocyte; conditions: 2 h
[25] = Drug metabolism in human hepatocytes assessed as (S)-4-(3-amino-4-fluoro-1-(3-(pyrimidin-5-yl)phenyl)-1H-isoindol-1-yl)-2-(difluoromethyl)pyridine 1-oxide formation at 5 uM after 120 mins by LC-MS analysis; format: ADME, cell-based, Hepatocyte; conditions: 2 h
[26] = Drug metabolism in human hepatocytes assessed as 1-(3-(3-amino-1-(2-(difluoromethyl)pyridin-4-yl)-4-fluoro-1H-isoindol-1-yl)phenyl)ethane-1,2-diol formation at 5 uM after 120 mins by LC-MS analysis; format: ADME, cell-based, Hepatocyte; conditions: 2 h
[27] = Drug metabolism in Sprague-Dawley rat hepatocytes assessed as 5-(3-(3-amino-1-(2-(difluoromethyl)-1-oxidopyridin-4-yl)-4-fluoro-1H-isoindol-1-yl)phenyl)pyrimidine 1-oxide formation at 5 uM after 120 mins by LC-MS analysis; format: ADME, cell-based, Hepatocyte; conditions: 2 h
[28] = Drug metabolism in Sprague-Dawley rat hepatocytes assessed as (S)-5-(3-(3-amino-1-(2-(difluoromethyl)pyridin-4-yl)-4-fluoro-1H-isoindol-1-yl)phenyl)pyrimidine 1-oxide formation at 5 uM after 120 mins by LC-MS analysis; format: ADME, cell-based, Hepatocyte; conditions: 2 h
[29] = Drug metabolism in New Zealand White rabbit hepatocytes assessed as 1-(3-(3-amino-1-(2-(difluoromethyl)pyridin-4-yl)-4-fluoro-1H-isoindol-1-yl)phenyl)ethane-1,2-diol formation at 5 uM after 120 mins by LC-MS analysis; format: ADME, cell-based, Oryctolagus cuniculus, Hepatocyte; conditions: 2 h
[30] = Drug metabolism in human hepatocytes assessed as 5-(3-(3-amino-1-(2-(difluoromethyl)pyridin-4-yl)-4-fluoro-1H-isoindol-1-yl)phenyl)pyrimidin-4(3H)-one formation at 5 uM after 120 mins by LC-MS analysis; format: ADME, cell-based, Hepatocyte; conditions: 2 h
[31] = Drug metabolism in human hepatocytes assessed as 5-(3-(3-amino-1-(2-(difluoromethyl)pyridin-4-yl)-4-fluoro-1H-isoindol-1-yl)phenyl)pyrimidin-4-ol formation at 5 uM after 120 mins by LC-MS analysis; format: ADME, cell-based, Hepatocyte; conditions: 2 h
[32] = Drug excretion in Han Wistar rat feces at 5.8 umol/kg, iv by LC-MS analysis; format: ADME, organism-based; conditions: faeces, read-out: Drug excretion
[33] = Drug metabolism in New Zealand White rabbit hepatocytes assessed as (S)-5-(3-(3-amino-1-(2-(difluoromethyl)pyridin-4-yl)-4-fluoro-1H-isoindol-1-yl)phenyl)pyrimidine 1-oxide formation at 5 uM after 120 mins by LC-MS analysis; format: ADME, cell-based, Oryctolagus cuniculus, Hepatocyte; conditions: 2 h
[34] = Drug excretion in Han Wistar rat urine at 5.8 umol/kg, iv by LC-MS analysis; format: ADME, organism-based; conditions: read-out: Drug excretion
[35] = Drug metabolism in human hepatocytes assessed as (S)-5-(3-(3-amino-1-(2-(difluoromethyl)pyridin-4-yl)-4-fluoro-1H-isoindol-1-yl)phenyl)pyrimidine 1-oxide formation at 5 uM after 120 mins by LC-MS analysis; format: ADME, cell-based, Hepatocyte; conditions: 2 h

[3H]c1cc(-c2c([3H])nc([3H])nc2[3H])cc([C@@]2(c3cc([3H])nc([3H])c3)N=C(N)c3c(F)cccc32)c1
dose excreted at 24 h [1]: < 10% | dose excreted at 48 h [2]: > 90% | dose excreted at 6 h [3]: 55%

NC1=NC(c2cc[n+]([O-])cc2)(c2cccc(-c3cncnc3)c2)c2cccc(F)c21 (stereo not given)
Drug metabolism (Liver microsome [4]): metabolite_detected | Drug metabolism (Cytochrome P450 3A4): metabolite_detected | Drug metabolism (Plasma): metabolite_detected | Drug metabolism (Liver microsome [5]): metabolite_detected

NC1=NC(c2cccc(C(O)CO)c2)(c2ccnc(C(F)F)c2)c2cccc(F)c21 (stereo not given)
Drug metabolism (Hepatocyte [6]): metabolite_detected | Drug metabolism (Hepatocyte [7]): metabolite_detected

NC1=N[C@@](c2cccc(-c3cncnc3)c2)(c2cc[n+]([O-])c(C(F)F)c2)c2cccc(F)c21
Drug metabolism (Liver microsome [8]): metabolite_detected | Drug metabolism (Liver): metabolite_detected | Drug metabolism (Hepatocyte [7]): metabolite_detected | Drug metabolism (Hepatocyte [9]): metabolite_detected | Drug metabolism (Liver microsome [10]): metabolite_detected

NC1=NC(c2cccc(-c3cncn3O[C@@H]3O[C@H](C(=O)O)[C@@H](O)[C@H](O)[C@H]3O)c2)(c2ccnc(C(F)F)c2)c2cccc(F)c21 (stereo not given in full)
Drug metabolism [11]: metabolite_detected | Drug metabolism (Hepatocyte [9]): metabolite_detected

NC1=NC(c2cccc(-c3cncn3O)c2)(c2ccnc(C(F)F)c2)c2cccc(F)c21 (stereo not given)
Drug metabolism [11]: metabolite_detected

NC1=NC(c2cccc(-c3cnc[n+]([O-])c3)c2)(c2cc[n+]([O-])c(C(F)F)c2)c2cccc(F)c21 (stereo not given)
Drug metabolism (Hepatocyte [7]): metabolite_detected | Drug metabolism (Hepatocyte [9]): metabolite_detected

NC1=N[C@@](c2cccc(-c3cnc[n+]([O-])c3)c2)(c2ccnc(C(F)F)c2)c2cccc(F)c21
Drug metabolism (Liver microsome [8]): metabolite_detected | Drug metabolism (Hepatocyte [6]): metabolite_detected | Drug metabolism (Liver): metabolite_detected | Drug metabolism (Hepatocyte [7]): metabolite_detected | Drug metabolism (Hepatocyte [9]): metabolite_detected | Drug metabolism (Liver microsome [10]): metabolite_detected

NC1=N[C@@](c2cccc(-c3cncnc3)c2)(c2ccnc(C(F)F)c2)c2cccc(F)c21.O=C(O)/C=C/C(=O)O
Drug metabolism (Liver microsome [12]): metabolite_detected | Drug metabolism [13]: metabolite_detected | Drug metabolism (Liver microsome [14]): metabolite_detected | Drug metabolism [15]: metabolite_detected | Drug metabolism (Liver microsome [16]): metabolite_detected | Drug metabolism [17]: metabolite_detected | Drug metabolism (Liver microsome [18]): metabolite_detected

NC1=NC(c2cc[n+]([O-])cc2)(c2cccc(-c3cnc[n+]([O-])c3)c2)c2cccc(F)c21 (stereo not given)
Drug metabolism (Plasma): metabolite_detected

NC1=N[C@](c2ccnc(C(F)F)c2)([14c]2[14cH][14cH][14cH][14c](-c3cncnc3)[14cH]2)c2cccc(F)c21.O=C(O)/C=C/C(=O)O
Drug metabolism [19]: metabolite_detected | Drug metabolism [20]: metabolite_detected | Drug metabolism [21]: metabolite_detected | Drug metabolism [22]: metabolite_detected | Drug metabolism [23]: metabolite_detected | Drug metabolism [24]: metabolite_detected | Drug metabolism [25]: metabolite_detected | Drug metabolism [26]: metabolite_detected | Drug metabolism [27]: metabolite_detected | Drug metabolism [28]: metabolite_detected | Drug metabolism [29]: metabolite_detected | Drug metabolism [30]: metabolite_detected | Drug metabolism [31]: metabolite_detected | dose excreted [32]: > 90% | Drug metabolism [33]: metabolite_detected | dose excreted [34]: < 1% | Drug metabolism [35]: metabolite_detected
